Laboratory results as given in the CheMixHub viscosity set.

Assay: xn = mol fraction of the nth substance listed

CN(C)CCO + CC(=O)c1ccccc1
viscosity [mPa·s], 101.3 kPa
Conditions	x2 = 0.0879	x2 = 0.1782	x2 = 0.2709	x2 = 0.3663	x2 = 0.4644	x2 = 0.5654	x2 = 0.6693	x2 = 0.7762	x2 = 0.8864
303.15 K	2.331	2.243	2.155	2.067	1.98	1.892	1.804	1.716	1.628
313.15 K	1.952	1.882	1.811	1.741	1.67	1.6	1.529	1.459	1.388
323.15 K	1.689	1.644	1.6	1.555	1.51	1.465	1.42	1.375	1.33

C1CCC2=[NH+]CCCN2CC1.c1nc[n-]n1 + CN(C)C=O
303.15 K, 100 kPa
Conditions	viscosity [mPa·s]
x1 = 0.1001	1.42
x1 = 0.2	3.07
x1 = 0.2999	6.28
x1 = 0.4003	11.77
x1 = 0.4989	25.38
x1 = 0.6002	46.11
x1 = 0.7008	98.43
x1 = 0.7993	195
x1 = 0.9002	470.1

Cc1ccccc1O + Cc1ccccc1
308.15 K, 101 kPa
Conditions	viscosity [mPa·s]
x1 = 0.1491	0.6
x1 = 0.224	0.7051
x1 = 0.307	0.8217
x1 = 0.397	0.9904
x1 = 0.5325	1.332
x1 = 0.6095	1.604
x1 = 0.6968	2.034
x1 = 0.7755	2.544
x1 = 0.87	3.369

C1CCC2=[NH+]CCCN2CC1.c1nc[n-]n1 + CC(C)O
303.15 K, 100 kPa
Conditions	viscosity [mPa·s]
x1 = 0.1001	7.85
x1 = 0.2	11.12
x1 = 0.2999	23.38
x1 = 0.4003	47.5
x1 = 0.4989	98.71
x1 = 0.6002	185.2
x1 = 0.7008	298.3
x1 = 0.7993	439.8
x1 = 0.9002	746.1

Cc1ccccc1O + CCC(=O)O
viscosity [mPa·s], 101 kPa
Conditions	x2 = 0.1315	x2 = 0.2542	x2 = 0.3688	x2 = 0.4761	x2 = 0.5768	x2 = 0.6716	x2 = 0.7608	x2 = 0.845	x2 = 0.9246
298.15 K	6.126	4.978	4.056	3.325	2.73	2.216	1.816	1.505	1.253
308.15 K	4.701	3.949	3.325	2.79	2.329	1.93	1.606	1.33	1.1
318.15 K	3.245	2.875	2.527	2.198	1.885	1.6	1.333	1.126	0.9354

CC(C)CO + CCCCCCCCCC
viscosity [mPa·s], 100 kPa
Conditions	x2 = 0.1004	x2 = 0.1999	x2 = 0.3	x2 = 0.3999	x2 = 0.5002	x2 = 0.5996	x2 = 0.7006	x2 = 0.8	x2 = 0.9
293.15 K	2.872	2.191	1.749	1.456	1.254	1.117	1.024	0.966	0.933
298.15 K	2.471	1.906	–	–	1.131	–	0.941	0.893	0.863
303.15 K	2.139	1.673	1.368	1.165	1.027	0.932	0.869	0.828	0.803
308.15 K	1.863	1.476	1.221	1.051	0.937	0.857	0.806	0.771	0.75
313.15 K	1.632	1.309	1.095	0.954	0.859	0.793	0.749	0.72	0.702
318.15 K	1.436	1.167	0.989	0.871	0.791	0.736	0.699	0.674	0.66
323.15 K	1.272	1.046	0.897	0.798	0.732	0.686	0.654	0.634	0.622

ClCC(Cl)Cl + N#CCc1ccccc1
Conditions	viscosity [mPa·s]
303.15 K, 101 kPa, x2 = 0.3463	1.365
